Laboratory results as given in PubChem BioAssay AID328 (DTP/NCI, 2004).
Values joined by “and” are separate entries in the source; they are usually repeats but may differ in a detail not shown here. Identical values can stand only once. Toxic doses and inconclusive results are not listed.

System: BDF1 mice, P388 leukemia ip, median survival T/C
Assay: NCI In Vivo Anticancer Drug Screen. Data for tumor model P388 Leukemia (intraperitoneal) in B6D2F1 (BDF1) mice
Conditions: endpoint: median survival time, higher = longer survival
How it was run: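 T/C = treated-group survival ÷ vehicle-control survival; tumour transplanted into mice before dosing.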

[1] = dose: 400.0 mg/kg/injection, schedule: Q01DX009 (ip), vehicle: Klucel (hydroxypropylcellulose) (HPC)
[2] = dose: 50.0 mg/kg/injection, schedule: Q01DX009 (ip), vehicle: saline with Tween-80
[3] = dose: 100.0 mg/kg/injection, schedule: Q01DX009 (ip), vehicle: saline with Tween-80
[4] = dose: 100.0 mg/kg/injection, schedule: Q04DX003 (ip), vehicle: saline with Tween-80
[5] = dose: 200.0 mg/kg/injection, schedule: Q01DX009 (ip), vehicle: saline with Tween-80
[6] = dose: 200.0 mg/kg/injection, schedule: Q04DX003 (ip), vehicle: saline with Tween-80
[7] = dose: 400.0 mg/kg/injection, schedule: Q04DX003 (ip), vehicle: saline with Tween-80
[8] = dose: 50.0 mg/kg/injection, schedule: Q04DX003 (ip), vehicle: saline with Tween-80
[9] = dose: 25.0 mg/kg/injection, schedule: Q01DX009 (ip), vehicle: saline with Tween-80
[10] = dose: 6.25 mg/kg/injection, schedule: Q01DX009 (ip), vehicle: saline with Tween-80
[11] = dose: 12.5 mg/kg/injection, schedule: Q01DX009 (ip), vehicle: saline with Tween-80

## NC(CSC(c1ccccc1)(c1ccccc1)c1ccc(CO)cc1)C(=O)O (stereo unspecified)
dose: 3.0 mg/kg/injection, schedule: Q01DX009 (ip), vehicle: Klucel (hydroxypropylcellulose) (HPC)
  T/C: 100 % of control
dose: 6.0 mg/kg/injection, schedule: Q01DX009 (ip), vehicle: Klucel (hydroxypropylcellulose) (HPC)
  T/C: 113 % of control
dose: 12.0 mg/kg/injection, schedule: Q01DX009 (ip), vehicle: Klucel (hydroxypropylcellulose) (HPC)
  T/C: 122 % of control
dose: 12.0 mg/kg/injection, schedule: Q01DX009 (ip), vehicle: saline
  T/C: 109 % of control
dose: 12.0 mg/kg/injection, schedule: Q04DX003 (ip), vehicle: saline
  T/C: 100 % of control
dose: 25.0 mg/kg/injection, schedule: Q01DX009 (ip), vehicle: Klucel (hydroxypropylcellulose) (HPC)
  T/C: 150 % of control
dose: 25.0 mg/kg/injection, schedule: Q01DX009 (ip), vehicle: saline
  T/C: 159 % of control
dose: 25.0 mg/kg/injection, schedule: Q04DX003 (ip), vehicle: saline
  T/C: 103 % of control
dose: 50.0 mg/kg/injection, schedule: Q01DX009 (ip), vehicle: Klucel (hydroxypropylcellulose) (HPC)
  T/C: 168 % of control
dose: 50.0 mg/kg/injection, schedule: Q01DX009 (ip), vehicle: saline
  T/C: 163 % of control
dose: 50.0 mg/kg/injection, schedule: Q04DX003 (ip), vehicle: saline
  T/C: 111 % of control
dose: 75.0 mg/kg/injection, schedule: Q01DX009 (ip), vehicle: Klucel (hydroxypropylcellulose) (HPC)
  T/C: 159 % of control
dose: 150.0 mg/kg/injection, schedule: Q01DX009 (ip), vehicle: Klucel (hydroxypropylcellulose) (HPC)
  T/C: 154 % of control
dose: 300.0 mg/kg/injection, schedule: Q01DX009 (ip), vehicle: Klucel (hydroxypropylcellulose) (HPC)
  T/C: 259 % of control
[1]
  T/C: 272 % of control
dose: 400.0 mg/kg/injection, schedule: Q04DX003 (ip), vehicle: saline
  T/C: 155 % of control

## COC(=O)C(CSCSC)NC(=O)/C=C/c1ccc(C)cc1 (stereo unspecified)
[2]
  T/C: 109 % of control
[3]
  T/C: 109 % of control
[4]
  T/C: 91 % of control
[5]
  T/C: 92 % of control
[6]
  T/C: 91 % of control
dose: 400.0 mg/kg/injection, schedule: Q01DX009 (ip), vehicle: saline with Tween-80
  T/C: 100 % of control
[7]
  T/C: 88 % of control

## COC1C(=[N+]=[N-])C(=O)NC(=O)N1C (stereo unspecified)
dose: 12.5 mg/kg/injection, schedule: Q04DX003 (ip), vehicle: water
  T/C: 120 % of control

## COc1cccc(C=O)c1OC
[8]
  T/C: 112 % of control
[4]
  T/C: 107 % of control
[6]
  T/C: 112 % of control
[7]
  T/C: 107 % of control

## CCN(CC)CC(=O)Nc1ccc(Cl)cc1Cc1ccccc1
[2]
  T/C: 110 % of control
[3]
  T/C: 106 % of control
[5]
  T/C: 105 % of control

## Cc1ncc(CSc2ccccc2N)c(CO)c1O
[2]
  T/C: 91 % of control
[3]
  T/C: 92 % of control
[5]
  T/C: 94 % of control

## CCOC(CNC(=O)OCc1ccccc1)OCC
dose: 100.0 mg/kg/injection, schedule: Q01DX009 (ip), vehicle: Klucel (hydroxypropylcellulose) (HPC)
  T/C: 105 % of control
dose: 200.0 mg/kg/injection, schedule: Q01DX009 (ip), vehicle: Klucel (hydroxypropylcellulose) (HPC)
  T/C: 100 % of control
[1]
  T/C: 105 % of control

## CC(=O)OC1CCC2(C)C(CCC3(C)C2CCC2C4C5OC(=O)C4(CCC5(C)C)CCC23C)C1(C)C (stereo unspecified)
dose: 10.0 mg/kg/injection, schedule: Q01DX009 (ip), vehicle: Klucel (hydroxypropylcellulose) (HPC)
  T/C: 105 % of control
dose: 20.0 mg/kg/injection, schedule: Q01DX009 (ip), vehicle: Klucel (hydroxypropylcellulose) (HPC)
  T/C: 114 % of control
dose: 40.0 mg/kg/injection, schedule: Q01DX009 (ip), vehicle: Klucel (hydroxypropylcellulose) (HPC)
  T/C: 110 % of control

## CCOC(=O)C1=C(O)c2c(sc(C)c2C)N(S(=O)(=O)c2ccc(C)cc2)CC1
[9]
  T/C: 90 % of control
[2]
  T/C: 113 % of control
[8]
  T/C: 91 % of control
[3]
  T/C: 104 % of control
[4]
  T/C: 91 % of control
[5]
  T/C: 109 % of control
[6]
  T/C: 91 % of control
[7]
  T/C: 100 % of control

## O=c1oc2ccccc2c(O)c1C(C/C(=N/O)c1ccccc1)c1ccccc1 (stereo unspecified)
[10]
  T/C: 99 % of control
dose: 6.25 mg/kg/injection, schedule: Q04DX003 (ip), vehicle: saline with Tween-80
  T/C: 100 % of control and 101 % of control
[11]
  T/C: 94 % of control
dose: 12.5 mg/kg/injection, schedule: Q04DX003 (ip), vehicle: saline with Tween-80
  T/C: 92 % of control and 107 % of control
[9]
  T/C: 93 % of control
dose: 25.0 mg/kg/injection, schedule: Q04DX003 (ip), vehicle: saline with Tween-80
  T/C: 105 % of control and 108 % of control
[8]
  T/C: 95 % of control and 110 % of control
[4]
  T/C: 102 % of control

## C=C(C)C(=O)O[C@H]1CC2=C[C@@H](C[C@@]3(C)O[C@@H]3[C@H]3OC(=O)C(=C)[C@@H]31)OC2=O
dose: 2.2 mg/kg/injection, schedule: Q01DX010 (ip), vehicle: carboxymethylcellulose (CMC)
  T/C: 113 % of control
dose: 2.5 mg/kg/injection, schedule: Q01DX009 (ip), vehicle: saline + alcohol
  T/C: 109 % of control
dose: 3.3 mg/kg/injection, schedule: Q01DX010 (ip), vehicle: carboxymethylcellulose (CMC)
  T/C: 118 % of control
dose: 5.0 mg/kg/injection, schedule: Q01DX010 (ip), vehicle: carboxymethylcellulose (CMC)
  T/C: 113 % of control
dose: 7.5 mg/kg/injection, schedule: Q01DX010 (ip), vehicle: carboxymethylcellulose (CMC)
  T/C: 152 % of control
dose: 7.5 mg/kg/injection, schedule: Q01DX010 (ip), vehicle: saline
  T/C: 118 % of control
dose: 10.0 mg/kg/injection, schedule: Q01DX009 (ip), vehicle: saline
  T/C: 120 % of control
dose: 15.0 mg/kg/injection, schedule: Q01DX010 (ip), vehicle: carboxymethylcellulose (CMC)
  T/C: 157 % of control
dose: 15.0 mg/kg/injection, schedule: Q01DX010 (ip), vehicle: saline
  T/C: 109 % of control
dose: 20.0 mg/kg/injection, schedule: Q01DX009 (ip), vehicle: saline + alcohol
  T/C: 122 % of control
dose: 30.0 mg/kg/injection, schedule: Q01DX010 (ip), vehicle: carboxymethylcellulose (CMC)
  T/C: 115 % of control
dose: 30.0 mg/kg/injection, schedule: Q01DX010 (ip), vehicle: saline
  T/C: 118 % of control
dose: 40.0 mg/kg/injection, schedule: Q01DX009 (ip), vehicle: saline
  T/C: 160 % of control
dose: 60.0 mg/kg/injection, schedule: Q01DX010 (ip), vehicle: saline
  T/C: 90 % of control

## Clc1c(CBr)ccc(CBr)c1Cl
[10]
  T/C: 104 % of control
dose: 6.25 mg/kg/injection, schedule: Q04DX003 (ip), vehicle: saline sonified
  T/C: 100 % of control
[11]
  T/C: 114 % of control
dose: 12.5 mg/kg/injection, schedule: Q04DX003 (ip), vehicle: saline sonified
  T/C: 90 % of control
[9]
  T/C: 123 % of control
dose: 25.0 mg/kg/injection, schedule: Q04DX003 (ip), vehicle: saline sonified
  T/C: 90 % of control

## COC(OC)c1cc(=O)[nH]c(=S)[nH]1
dose: 100.0 mg/kg/injection, schedule: Q01DX001 (ip), vehicle: Klucel (hydroxypropylcellulose) (HPC)
  T/C: 100 % of control
dose: 200.0 mg/kg/injection, schedule: Q01DX001 (ip), vehicle: Klucel (hydroxypropylcellulose) (HPC)
  T/C: 109 % of control
dose: 400.0 mg/kg/injection, schedule: Q01DX001 (ip), vehicle: Klucel (hydroxypropylcellulose) (HPC)
  T/C: 90 % of control

## CCOc1ccc(Br)cc1/C=N\N=C\c1cc(Br)ccc1OCC
dose: 6.0 mg/kg/injection, schedule: Q01DX001 (ip), vehicle: Klucel (hydroxypropylcellulose) (HPC)
  T/C: 87 % of control
dose: 12.0 mg/kg/injection, schedule: Q01DX001 (ip), vehicle: Klucel (hydroxypropylcellulose) (HPC)
  T/C: 95 % of control
dose: 25.0 mg/kg/injection, schedule: Q01DX001 (ip), vehicle: Klucel (hydroxypropylcellulose) (HPC)
  T/C: 86 % of control

## O=C1CCCC2C3CC(CN12)C1CC(O)CCN1C3 (stereo unspecified)
dose: 20.0 mg/kg/injection, schedule: Q01DX010 (ip), vehicle: saline
  T/C: 90 % of control
dose: 40.0 mg/kg/injection, schedule: Q01DX010 (ip), vehicle: saline
  T/C: 100 % of control
dose: 80.0 mg/kg/injection, schedule: Q01DX010 (ip), vehicle: saline
  T/C: 100 % of control

## O=C1c2cscc2C(=O)c2c(Cl)sc(Cl)c21
[10]
  T/C: 101 % of control
[11]
  T/C: 108 % of control
[9]
  T/C: 101 % of control

## Nc1nc2nc(N=Nc3ccc(Br)cc3)[nH]c2c(=O)[nH]1
dose: 50.0 mg/kg/injection, schedule: Q01DX005 (ip), vehicle: saline with Tween-80
  T/C: 98 % of control
dose: 100.0 mg/kg/injection, schedule: Q01DX005 (ip), vehicle: saline with Tween-80
  T/C: 97 % of control
dose: 200.0 mg/kg/injection, schedule: Q01DX005 (ip), vehicle: saline with Tween-80
  T/C: 100 % of control
